Reference: ChEMBL document CHEMBL1201862, “PubChem BioAssay data set” (2004)
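A five-concentration, 48-hour dose response in 96-well plates underlies each endpoint, interpolated linearly between surrounding concentrations. GI50 marks 50% less growth.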 Activity calls are given as the source filed them. Cut-off read from the data, not from the text of the source: active = GI50 up to about 1.1 µM and inactive = higher.

How the values were obtained:
Experiment in all cases: NCI anticancer screen, dose series, 48 h
Hs-578T = test system: Hs-578T
A549 = test system: A549
SF-295 = test system: SF-295
MOLT-4 = test system: MOLT-4
OVCAR-4 = test system: OVCAR-4
ACHN = test system: ACHN
MCF7 = test system: MCF7
K562 = test system: K562
UO-31 = test system: UO-31
HOP-92 = test system: HOP-92
CCRF-CEM = test system: CCRF-CEM
SK-MEL-28 = test system: SK-MEL-28
SNB-19 = test system: SNB-19
NCI-H460 = test system: NCI-H460
M14 = test system: M14
SW-620 = test system: SW-620
SK-MEL-5 = test system: SK-MEL-5
HCT-116 = test system: HCT-116
SF-268 = test system: SF-268
HCT-15 = test system: HCT-15

SMILES: O=C(Cc1cc(=O)oc2cc(O)ccc12)N/N=C/c1ccc(N(CCCl)CCCl)cc1
- GI50 (Hs-578T): 26.1 µM (inactive)
- GI50 (A549): 16.1 µM (inactive)
- GI50 (SF-295): 18.1 µM (inactive)
- GI50 (MOLT-4): 15.3 µM (inactive)
- GI50 (OVCAR-4): 23.8 µM (inactive)
- GI50 (ACHN): 15.8 µM (inactive)
- GI50 (MCF7): 14.8 µM (inactive)
- GI50 (K562): 23.5 µM (inactive)
- GI50 (UO-31): 22.2 µM (inactive)
- GI50 (HOP-92): 20.8 µM (inactive)
- GI50 (CCRF-CEM): 15 µM (inactive)
- GI50 (SK-MEL-28): 15.1 µM (inactive)
- GI50 (SNB-19): 21.1 µM (inactive)
- GI50 (NCI-H460): 13.8 µM (inactive)
- GI50 (M14): 19.5 µM (inactive)
- GI50 (SW-620): 34.1 µM (inactive)
- GI50 (SK-MEL-5): 14.6 µM (inactive)
- GI50 (HCT-116): 16.6 µM (inactive)
- GI50 (SF-268): 13.4 µM (inactive)
- GI50 (HCT-15): > 100 µM

SMILES: COC(O)C(=O)c1c2c(cc3c1CC1(Cc4cc5c(cc4C1)CCC5)C3)CCC2 (stereo not given)
- GI50 (Hs-578T): 20.4 µM (inactive)
- GI50 (A549): 16.8 µM (inactive)
- GI50 (SF-295): 19.7 µM (inactive)
- GI50 (MOLT-4): 15.8 µM (inactive)
- GI50 (OVCAR-4): 18.5 µM (inactive)
- GI50 (ACHN): 15.7 µM (inactive)
- GI50 (MCF7): 16 µM (inactive)
- GI50 (K562): 13.2 µM (inactive)
- GI50 (UO-31): 18.7 µM (inactive)
- GI50 (HOP-92): 15.7 µM (inactive)
- GI50 (CCRF-CEM): 4.33 µM (inactive)
- GI50 (SK-MEL-28): 20 µM (inactive)
- GI50 (SNB-19): 18.1 µM (inactive)
- GI50 (NCI-H460): 23.6 µM (inactive)
- GI50 (M14): 16.6 µM (inactive)
- GI50 (SW-620): 16.2 µM (inactive)
- GI50 (SK-MEL-5): 17.3 µM (inactive)
- GI50 (HCT-116): 8.73 µM (inactive)
- GI50 (SF-268): 20.5 µM (inactive)
- GI50 (HCT-15): 20.7 µM
